# Test results published in ChEMBL document CHEMBL1135856, “Identification of unique VLA-4 antagonists from a combinatorial library” (Bioorg Med Chem Lett, 2002).
# Target: Integrin alpha-4/beta-1 (Homo sapiens, UniProt P05556+P13612)
# Experiment: Inhibition of [125I]VCAM-Ig binding to Alpha-4 beta-1 (VLA-4) of Jurkat cells
# Type: cell-based
# Integrin alpha-4/beta-1, sequence (P05556 whole entry): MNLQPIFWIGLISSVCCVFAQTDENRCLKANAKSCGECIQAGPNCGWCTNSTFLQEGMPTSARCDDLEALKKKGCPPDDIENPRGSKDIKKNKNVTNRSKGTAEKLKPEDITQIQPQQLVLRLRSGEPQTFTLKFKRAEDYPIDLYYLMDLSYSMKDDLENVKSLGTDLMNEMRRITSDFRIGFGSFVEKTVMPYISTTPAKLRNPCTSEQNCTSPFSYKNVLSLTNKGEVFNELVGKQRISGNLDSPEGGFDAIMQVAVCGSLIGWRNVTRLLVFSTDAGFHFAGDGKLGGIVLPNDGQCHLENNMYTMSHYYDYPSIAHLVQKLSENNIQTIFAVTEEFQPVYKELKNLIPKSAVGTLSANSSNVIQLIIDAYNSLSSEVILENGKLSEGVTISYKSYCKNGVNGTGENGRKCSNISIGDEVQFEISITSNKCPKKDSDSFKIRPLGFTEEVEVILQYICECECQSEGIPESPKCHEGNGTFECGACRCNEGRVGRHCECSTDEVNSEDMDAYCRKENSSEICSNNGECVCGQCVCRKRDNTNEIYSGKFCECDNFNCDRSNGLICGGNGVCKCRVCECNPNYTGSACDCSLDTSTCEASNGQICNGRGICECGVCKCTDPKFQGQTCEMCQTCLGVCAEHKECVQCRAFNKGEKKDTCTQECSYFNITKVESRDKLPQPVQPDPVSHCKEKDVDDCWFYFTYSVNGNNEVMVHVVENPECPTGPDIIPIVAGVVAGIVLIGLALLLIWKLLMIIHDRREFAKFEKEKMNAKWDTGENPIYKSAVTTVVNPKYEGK
# Integrin alpha-4/beta-1, sequence (P13612 whole entry): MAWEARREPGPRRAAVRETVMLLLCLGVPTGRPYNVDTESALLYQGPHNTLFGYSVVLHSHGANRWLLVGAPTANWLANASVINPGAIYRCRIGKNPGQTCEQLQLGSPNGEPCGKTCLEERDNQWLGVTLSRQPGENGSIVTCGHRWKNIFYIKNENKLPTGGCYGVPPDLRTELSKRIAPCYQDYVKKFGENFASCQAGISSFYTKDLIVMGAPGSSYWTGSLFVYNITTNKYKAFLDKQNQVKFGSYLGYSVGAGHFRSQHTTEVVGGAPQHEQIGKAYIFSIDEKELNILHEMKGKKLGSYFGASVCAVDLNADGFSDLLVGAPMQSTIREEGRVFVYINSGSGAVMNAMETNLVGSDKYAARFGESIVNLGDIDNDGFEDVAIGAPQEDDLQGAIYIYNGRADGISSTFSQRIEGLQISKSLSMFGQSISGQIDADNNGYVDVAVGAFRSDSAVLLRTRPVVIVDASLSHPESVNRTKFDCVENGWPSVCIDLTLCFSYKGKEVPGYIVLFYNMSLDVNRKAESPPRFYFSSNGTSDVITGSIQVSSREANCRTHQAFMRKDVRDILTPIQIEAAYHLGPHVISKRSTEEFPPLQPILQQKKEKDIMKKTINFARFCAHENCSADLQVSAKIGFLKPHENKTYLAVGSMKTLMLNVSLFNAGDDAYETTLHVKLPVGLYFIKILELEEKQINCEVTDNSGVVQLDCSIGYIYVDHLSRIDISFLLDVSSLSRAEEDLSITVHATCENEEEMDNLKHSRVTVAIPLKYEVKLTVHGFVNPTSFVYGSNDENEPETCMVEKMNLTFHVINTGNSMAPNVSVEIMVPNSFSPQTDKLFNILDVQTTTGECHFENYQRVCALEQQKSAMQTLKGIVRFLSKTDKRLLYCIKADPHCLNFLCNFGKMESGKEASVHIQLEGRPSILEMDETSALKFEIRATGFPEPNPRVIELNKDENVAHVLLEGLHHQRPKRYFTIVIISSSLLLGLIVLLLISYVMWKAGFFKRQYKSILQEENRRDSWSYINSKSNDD
row,IC50,Structure (SMILES)
1,8.1 nM,Cc1ccccc1NC(=O)Nc1ccc(CC(=O)C2CCC(C(=O)N[C@@H](Cc3ccccc3)C(=O)O)(c3ccccc3)CC2)cc1 (some centres undefined)
2,0.53 nM,CCCC[C@H](NC(=O)[C@@H]1Cc2ccccc2CN1S(=O)(=O)c1ccc(OC)c(OC)c1)C(=O)O
3,3.6 nM,O=C(N[C@@H](Cc1ccc(-c2ccccc2)cc1)C(=O)O)c1ccc(CNS(=O)(=O)c2cc(Cl)cc(Cl)c2)cc1
4,3.2 nM,Cc1ccccc1NC(=O)Nc1ccc(CC(=O)N(CC(=O)NC(CC(=O)O)c2ccccc2)C2CCCCC2)cc1 (centres undefined)
